Consider one compound from ChEMBL document CHEMBL6096740, “Discovery and Optimization of a Series of Novel Morpholine-Containing USP1 Inhibitors” (J Med Chem, 2025).

Data set [1] can be described thus: Metabolic stability in mouse liver microsome assessed as intrinsic clearance preincubated for 5 mins followed by NADPH addition and measured after 120 mins by LC-MS/MS analysis. Conditions: liver microsomes, time 125 min, read-out: CLH. The data set is classed as ADME. In general terms: Liver microsomes are vesicles of endoplasmic reticulum, rich in cytochrome P450 enzymes.

A short description of data set [2]: Metabolic stability in rat liver microsome assessed as intrinsic clearance preincubated for 5 mins followed by NADPH addition and measured after 120 mins by LC-MS/MS analysis. The data set is classed as ADME. Conditions: liver microsomes, time 125 min, read-out: CLH.
Data set [3] in a line: Cmax in ICR mouse at 10 mg/kg, po measured up to 24 hrs. Conditions: in vivo. The data set is classed as ADME, organism-based.
A short description of data set [4]: Metabolic stability in monkey liver microsome assessed as half life preincubated for 5 mins followed by NADPH addition and measured after 120 mins by LC-MS/MS analysis. The data set is classed as ADME, Macaca mulatta. Conditions: rhesus monkey, liver microsomes; time 125 min.
Data set [5] can be described thus: Metabolic stability in dog liver microsome assessed as half life preincubated for 5 mins followed by NADPH addition and measured after 120 mins by LC-MS/MS analysis. It counts as ADME, Canis lupus familiaris. The conditions noted are these: liver microsomes, time 125 min.
Data set [6] in a line: Half life in ICR mouse at 10 mg/kg, po measured up to 24 hrs. It counts as ADME, organism-based. The conditions noted are these: in vivo.
A short description of data set [7]: Metabolic stability in dog liver microsome assessed as intrinsic clearance preincubated for 5 mins followed by NADPH addition and measured after 120 mins by LC-MS/MS analysis. It counts as ADME, Canis lupus familiaris. Conditions: liver microsomes, time 125 min, read-out: CLH.
Data set [8] is described as follows: Metabolic stability in human liver microsome assessed as half life preincubated for 5 mins followed by NADPH addition and measured after 120 mins by LC-MS/MS analysis. It counts as ADME. Conditions: liver microsomes, time 125 min.
The nature of data set [9]: Metabolic stability in monkey liver microsome assessed as intrinsic clearance preincubated for 5 mins followed by NADPH addition and measured after 120 mins by LC-MS/MS analysis. The data set is classed as ADME, Macaca mulatta. The conditions noted are these: rhesus monkey, liver microsomes; time 125 min; read-out: CLH.
A short description of data set [10]: Metabolic stability in mouse liver microsome assessed as half life preincubated for 5 mins followed by NADPH addition and measured after 120 mins by LC-MS/MS analysis. It counts as ADME. The conditions noted are these: liver microsomes, time 125 min.
Data set [11] in a line: AUC (0 to t) in ICR mouse at 10 mg/kg, po measured up to 24 hrs. The conditions noted are these: in vivo. The data set is classed as ADME, organism-based.
The nature of data set [12]: Metabolic stability in rat liver microsome assessed as half life preincubated for 5 mins followed by NADPH addition and measured after 120 mins by LC-MS/MS analysis. The data set is classed as ADME. Conditions: liver microsomes, time 125 min.
The nature of data set [13]: Metabolic stability in human liver microsome assessed as intrinsic clearance preincubated for 5 mins followed by NADPH addition and measured after 120 mins by LC-MS/MS analysis. It counts as ADME. The conditions noted are these: liver microsomes, time 125 min, read-out: CLH.
A short description of data set [14]: Tmax in ICR mouse at 10 mg/kg, po measured up to 24 hrs. It counts as ADME, organism-based. The conditions noted are these: in vivo.
A short description of data set [15]: AUC (0 to infinity) in ICR mouse at 10 mg/kg, po measured up to 24 hrs. It counts as ADME, organism-based. Conditions: in vivo.

In general, Cmax refers to the peak of the concentration-time curve. As usually defined, the half-life is the time needed for the level to fall by half in the phase considered. The term AUC(0-t) denotes the area under the concentration-time curve up to a stated or last time point. For orientation: Tmax means the time from dosing to the highest level. A word on the AUC(0-inf): it is the area under the concentration-time curve extrapolated to infinity. As to `COc1ncnc(C2CC2)c1-c1nc(N2CCOC[C@H]2c2ccc(-c3nc(C(F)(F)F)cn3C(C)C)cc2)c2occc2n1`, the CLint scaled in [1] was 90.8 mL/min/kg; in data set [2] it was less than 20.7 mL/min/kg; in [7], 30 mL/min/kg; in data set [9], 33.9 mL/min/kg; in data set [13], 20.3 mL/min/kg. In [3], this compound had a Cmax of 3510 ng/mL. The half-life in data set [4] was 0.997 h; in data set [5], 1.92 h; in data set [6], 1.92 h; in data set [8] it was 1.43 h; in [10] it was 1 h; in data set [12], greater than 2 h. Moreover, the AUC(0-t) at 24 h in [11] came out at 13300 ng·h/mL. Besides, the Tmax in data set [14] stood at 0.25 h. The same compound registered an AUC(0-inf) in [15] of 14200 ng·h/mL.
